Drawing on US12275721B2, “Indazole carboxamides as kinase inhibitors” (BRISTOL-MYERS SQUIBB COMPANY, priority 2019, dated 2025), this text covers IC50 for ten compounds.

The target in assay [1] is T1, His-GST-TVMV-hRIPK1(1-324) (Homo sapiens, UniProt Q13546).
T1 construct: 1 nM His-GST-TVMV-hRIPK1(1-324) in FRET Buffer; made in house; host or cells: Spodoptera frugiperda (Sf9) insect cells, baculovirus (Bac-to-Bac)
T1 sequence (Q13546 1-324): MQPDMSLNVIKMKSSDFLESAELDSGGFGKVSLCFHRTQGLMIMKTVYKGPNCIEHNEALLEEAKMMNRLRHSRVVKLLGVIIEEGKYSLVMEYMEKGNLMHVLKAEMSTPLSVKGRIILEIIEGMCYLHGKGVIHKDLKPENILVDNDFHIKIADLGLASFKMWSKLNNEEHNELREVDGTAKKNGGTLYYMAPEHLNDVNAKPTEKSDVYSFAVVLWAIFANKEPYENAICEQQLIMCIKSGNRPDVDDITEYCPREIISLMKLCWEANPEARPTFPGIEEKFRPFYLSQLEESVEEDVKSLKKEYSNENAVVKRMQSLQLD
Put plainly: RIPK1 HTRF Binding Assay. The note with it: HTRF probe displacement, 1 h at rt. How it is done:
A solution was prepared containing 0.2 nM Anti GST-Tb (Cisbio, 61GSTTLB), 90.6 nM probe and 1 nM His-GST-TVMV-hRIPK1(1-324) in FRET Buffer (20 mM HEPES, 10 mM MgCl2, 0.015% Brij-35, 4 mM DTT, 0.05 mg/mL BSA). Using Formulatrix Tempest, the detection antibody/enzyme/probe solution ([…]) was dispensed into wells of a 1536 plate (Black Low Binding Polystyrene 1536 Plate (Corning, 3724)) containing 10 nL of compounds of interest at appropriate concentration in DMSO. The plate was incubated at rt for 1 h. FRET was measured using the EnVision plate reader (Excitation: 340 nm, Emission: 520 nm/[…]). Total signal (0% inhibition) was calculated from wells containing 10 nL DMSO only.
Cloning and Baculovirus Expression of RIPK1 Construct
The coding region of human RIPK1(1-324) flanked by NdeI site at 5′ end and stop codon TGA and XhoI site at 3′ end was codon optimized and gene synthesized at GenScript USA Inc. (Piscataway, NJ) and subcloned into a modified pFastBac1 vector (Invitrogen, Carlsbad, CA) with N-terminal His-GST-TVMV tag, to generate His-GST TVMV-hRIPK1(1-324)-pFB. The fidelity of the synthetic fragment was confirmed by sequencing. Baculovirus was generated for the construct using the Bac-to-Bac baculovirus expression system (Invitrogen) according to the manufacturer's protocol. Briefly, recombinant bacmid was isolated from transformed DH10Bac E. coli competent cells 20 (Invitrogen) and used to transfect Spodoptera frugiperda (Sf9) insect cells (Invitrogen). Baculovirus was harvested 72 hours post transfection and a virus stock was prepared by infecting fresh Sf9 cells at a 1/1000 (v/v) ratio for 66 hours. For large scale protein production, Sf9 cells (Expression System, Davis, CA) grown in ESF921 insect medium (Expression System) at 2×10^6 cells/ml were infected with virus stock at a 1/100 (v/v) ratio for 66 hours. The production was carried out either at a 10 L scale in a 22 L cellbag (GE Healthcare Bioscience, Pittsburgh, PA) or at a 20 L scale in a 50 L cellbag using WAVE-Bioreactor System 20/50 (GE Healthcare Bioscience). The infected cells were harvested by centrifugation at 2000 rpm for 20 min at 4° C. in a SORVALL® RC12BP centrifuge. The cell pellets was stored at −70° C. before protein was purified.
Purification of His-GST-TVMV-hRIPK1(1-324)
RIPK1 containing cell paste was resuspended in 50 mM Tris pH 7.5, 150 mM NaCl, 10 mM imidazole, 5% glycerol, 5 mM MgSO4, 1 mM TCEP, 25 U/ml Benzonase, and Complete Protease Inhibitor tablets (1/50 ml, Roche Diagnostics, Indianapolis, IN). The cells were lysed by nitrogen cavitation using an unstirred pressure vessel @ 525 PSI (Parr Instrument Company, Moline, IL). The suspension was clarified by centrifugation at 136,000×g for 40 min, at 4° C. The lysate was decanted from the pellet and passed through a 5 ml NiNTA Superflow cartridge (Qiagen, Valencia, CA) using an AKTA Pure (GE Healthcare). Column was eluted with 10 CV linear gradient into 50 mM Tris 7.5, 150 mM NaCl, 500 mM imidazole, 5% glycerol, 1 mM TCEP. Peak fractions were pooled and loaded directly onto 5 ml GSTrap 4B column (GE Healthcare). Column was washed with 50 mM Tris 7.0, 150 mM NaCl, […], 1 mM DTT and eluted in 10 CV linear gradient into 50 mM Tris 8.0, 150 mM NaCl, 20 mM reduced glutathione, 50% glycerol, 1 mM DTT. Fractions identified by SDS-PAGE as containing RIPK1 were pooled and concentrated using 30 kDa MWCO spin concentrators (Amicon Ultra-15, Millipore, Billerica, MA) and loaded onto a HiLoad 26/600 Superdex 200 column (GE Healthcare) equilibrated in 25 mM Tris 7.5, 150 mM NaCl, 2 mM TCEP, […]. The RTPK1 protein eluted as a dimer off the SEC column. The yield was ˜8 mg/L with a purity […] as determined by Coomassie stain SDS-PAGE gel analysis. […] Protein was aliquoted and stored at −80° C. Using these assays, the IC50 values of the following compounds were determined.
Background: In TR-FRET formats the signal depends on donor and acceptor labels being close together.

The test system of assay [2] is MLKL phosphorylation in HT29-L23 human colorectal adenocarcinoma cells. Put plainly: MLKL Phosphorylation High-Content Assay. Format: cell-based. The note with it: Homo sapiens, necroptosis induced with TNFα, SMAC mimetic and Z-VAD, 6 h, read-out: pMLKL (IC50).

By IC50 is commonly meant the concentration that inhibits the measured activity by half. `CNC(=O)c1n[nH]c2cc(-c3csc(C(=O)NCC[C@H](O)c4ccc(Cl)cc4)c3)ccc12` [Example 4, (S)-6-(5-((3-(4-chlorophenyl)-3-hydroxypropyl)carbamoyl)thiophen-3-yl)-N-methyl-1H-indazole-3-carboxamide]: the IC50 in assay [1] was 43 nM; in assay [2], 230 nM.
The like results for `CNC(=O)c1n[nH]c2cc(-c3nc(C)c(C(=O)NCCC(C)c4ccccc4)s3)ccc12` (centres unmarked) [Example 15, 4-methyl-2-(3-(methylcarbamoyl)-1H-indazol-6-yl)-N-(3-phenylbutyl)thiazole-5-carboxamide] were, in that order, 8.3 nM and 44 nM.
The like results for `CNC(=O)c1n[nH]c2cc(-c3nc(C(=O)NCCC(C)c4ccccc4)c(C)n3C)ccc12` (centres unmarked) [Example 32, 6-(1,5-dimethyl-4-((3-phenylbutyl)carbamoyl)-1H-imidazol-2-yl)-N-methyl-1H-indazole-3-carboxamide] were, in that order, 230 nM and 460 nM.
In the same order, the values of `CNC(=O)c1n[nH]c2cc(-c3nc(C)c(C(=O)NC(C)c4cc(OC(F)(F)F)ccc4F)s3)ccc12` (centres unmarked) [Example 19, N-(1-(2-fluoro-5-(trifluoromethoxy)phenyl)ethyl)-4-methyl-2-(3-(methylcarbamoyl)-1H-indazol-6-yl)thiazole-5-carboxamide] are 13 nM and 19 nM.
Turning to `CNC(=O)c1n[nH]c2cc(-c3ccc(C(=O)NCCC(C)c4ccccc4)s3)ccc12` (centres unmarked) [Example 7, N-methyl-6-(5-((3-phenylbutyl)carbamoyl)thiophen-2-yl)-1H-indazole-3-carboxamide], the IC50 amounted to 17 nM in assay [1] and 3.9 nM in assay [2].
The like results for `CNC(=O)c1n[nH]c2cc(-c3nc(C(=O)NCCC(C)c4ccccc4)cs3)ccc12` (centres unmarked) [Example 21, 2-(3-(methylcarbamoyl)-1H-indazol-6-yl)-N-(3-phenylbutyl)thiazole-4-carboxamide] were, in that order, 170 nM and 810 nM.
Regarding `CNC(=O)c1n[nH]c2cc(-c3nc(C)c(C(=O)NCCC(C)c4ccccc4)n3C)ccc12` (centres unmarked) [Example 27, 6-(1,4-dimethyl-5-((3-phenylbutyl)carbamoyl)-1H-imidazol-2-yl)-N-methyl-1H-indazole-3-carboxamide], the IC50 turned out to be 220 nM in assay [1] and 470 nM in assay [2].
For `CNC(=O)c1n[nH]c2cc(-c3nc(C(=O)NCC[C@H](O)c4ccc(Cl)cc4)c(C)n3C)ccc12` [Example 34, (S)-6-(4-((3-(4-chlorophenyl)-3-hydroxypropyl)carbamoyl)-1,5-dimethyl-1H-imidazol-2-yl)-N-methyl-1H-indazole-3-carboxamide], the results for the IC50 in assay [1] and in assay [2] were 760 nM and 1700 nM, respectively.
The like results for `CNC(=O)c1n[nH]c2cc(-c3csc(C(=O)NCC[C@@H](O)c4ccc(Cl)cc4)c3)ccc12` [Example 3, (R)-6-(5-((3-(4-chlorophenyl)-3-hydroxypropyl)carbamoyl)thiophen-3-yl)-N-methyl-1H-indazole-3-carboxamide] were, in that order, 47 nM and 200 nM.
The like results for `CNC(=O)c1n[nH]c2cc(-c3nc(C(=O)NCc4cc(OC(F)(F)F)ccc4F)c(C)n3C)ccc12` [Example 31, 6-(4-((2-fluoro-5-(trifluoromethoxy)benzyl)carbamoyl)-1,5-dimethyl-1H-imidazol-2-yl)-N-methyl-1H-indazole-3-carboxamide] were, in that order, 66 nM and 600 nM.
